This is an account of results in US8541462B2, “Tetrahydrocarbazole derivatives as ligands of G-protein coupled receptors” (AEterna Zentaris GmbH, priority 2007, dated 2013).

The target in series [1] is T1, LHRH receptor (endogenous GnRH receptor of alpha T3-1 cell line) (Mus musculus, UniProt Q01776).
T1 construct: alpha T3-1 cell line with endogenous GnRH receptor expression; endogenous in cells; host or cells: alpha T3-1 cells (intact cell suspension)
T1 sequence (Q01776 1-327): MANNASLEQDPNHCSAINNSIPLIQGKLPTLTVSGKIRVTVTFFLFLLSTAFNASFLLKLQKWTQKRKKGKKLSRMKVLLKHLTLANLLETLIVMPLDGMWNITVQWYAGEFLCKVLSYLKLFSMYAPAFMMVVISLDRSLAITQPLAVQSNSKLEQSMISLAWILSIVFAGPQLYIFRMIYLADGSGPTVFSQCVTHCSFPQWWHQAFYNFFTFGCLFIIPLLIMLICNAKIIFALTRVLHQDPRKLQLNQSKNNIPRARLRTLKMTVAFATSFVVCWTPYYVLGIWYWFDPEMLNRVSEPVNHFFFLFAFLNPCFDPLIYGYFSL
The experiment in a line: LHRH-receptor binding assay (displacement of [125I] cetrorelix on alpha T3-1 cells). The following applies: WO 2006/005484-substance 75 = 100%. As for the experimental part:
For LHRH receptor binding studies, an assay system using alpha T3-1 cell line with endogenous GnRH receptor expression was employed (Windle et al., Mol. Endocrinol. 1990, 4(4): 597-603).
Iodinated cetrorelix was used as a tracer with about 80% of peptide capable of specific receptor association.
For displacement binding assays, the cells were incubated with approximately 200 pM [^125l] cetrorelix and different concentrations of unlabeled test compounds as competitor. The cell suspension in binding medium was layered on top of silicon/paraffin oil, incubated for 60 min at 37° C. and separated by centrifugation. The tips of the tubes containing the cell pellet were cut off, subsequently cell pellet and supernatant were analyzed by gamma-radiation analysis.
The amount of unspecific binding was determined by including unlabeled cetrorelix at 1 μM final concentration and was typically ≦10% of total binding. IC50 values were calculated by using the GraphPad Prism analysis program (GraphPad Software Inc.).
In general terms: In a radioligand displacement assay an active substance lowers the binding of a labelled ligand.

The test system of the next series is plasma testosterone. Kind of series: Testosterone suppression experiment (plasma testosterone ELISA). Format: in vivo, rat. The note with it: male Wistar rats, po in Solutol HS15/PEG300 (3:1), samples up to 24 h post-dose. As to the method:
Male Wistar rats weighing 248-296 g (Janvier, France) were used in the present study. Animals were housed in a temperature-controlled room (20-22° C.) and maintained in a 12 h light/12 h dark cycle. Food and water were available ad libitum.
Rats were anaesthetised with a ketamine (135 mg/kg)/xylazine (10 mg/kg) mixture, and cannulated with silicone tubing via the right jugular vein. Prior to the first blood sampling, animals were connected to a counterbalanced system and tubing, to perform blood sampling in the freely moving rat.
The dosing solutions were prepared immediately before application. […]
The concentrations of testosterone in the rat plasma samples were determined using the Testosterone ELISA (EIA-1559) from DRG Instruments according to the manufacturer's instructions. […] The plate was read within the next 30 min with a Spectramax Plus (Molecular Devices) at 450 nm. The concentration of testosterone in the samples was calculated from the standard curve and is inversely proportional to the optical density measured.
Due to the pulsatile release of testosterone in intact rats, two pre-treatment samples ere collected to establish baseline values prior the administration of the compound. […] The pre-treatment mean value was compared to the testosterone levels measured after application.
On the technique in general: An ELISA detects its analyte on a solid surface through an enzyme-linked reagent.

Series [2] can be described thus: Metabolic stability testing in liver microsomes. Format: in vitro ADME. The following applies: mixed-gender human liver microsomes, 1 mg microsomal protein/mL, initial concentration 10 μM, 60 minutes at 37° C.; WO 2006/005484-substance 7 = 100%. (Liver microsomes are vesicles of endoplasmic reticulum, rich in cytochrome P450 enzymes.)
Series [3] is described as follows: Pharmacokinetic study (oral, cannulated rats, LC/MS of plasma). Type of series: in vivo, rat. As for the experimental part:
Adult male Wistar rats weighing 278-290 g (Jinvier, France) were used in the study. Animals were housed in a temperature-controlled room (20-24° C.) and maintained in a 12 h light/12 h dark cycle. Food and water were available ad libitum.
For surgery, rats were anaesthetised with a ketamine (90 mg/kg)/xylazine (10 mg/kg) mixture, and cannulated with silicone tubing via the right jugular vein. Prior to the first blood sampling, animals were connected to a counterbalanced system and tubing to perform blood sampling in the freely moving rat.
Separate stock solutions (5 mg/ml) of compound 52 of the invention and prior art substance WO 2006/005484—substance 76 were prepared in Solutol HS 15/PEG300 (3:1). The whole process was performed under constant stirring. Half of the volume of the vehicle was added first. After sonication (5 minutes), the second half of the vehicle was added and the vials were again sonicated. All the solutions were clear and free of particles or agglomerates.
Immediately before application, the dosing mixture was prepared by adding equal volumes of the stock solutions to end up with a final concentration of 1 mg/ml for each compound. The mixture was applied orally to rats with an application volume of 5 ml/kg.
Blood samples (200 μl) were taken 1 hour before application and 1, 2, 4, 6, 8, 12 and 24 hours after. They were centrifuged at 650 g for 10 minutes at 4° C. and then the plasma was harvested and kept at −20° C. until LC/MS analysis.

Setting [4] is: rat, plasma, male Wistar rats, oral, 5 mg/kg, mixture of both compounds in Solutol HS 15/PEG300 (3:1).

Structures can show the parent of a compound that is named as a salt.

For the compound `CCC(C)[C@H](NC(=O)Cc1ccccc1F)C(=O)N[C@]1(C(=O)N[C@H](C(=S)NCCN2CCOCC2)C(C)CC)CCc2[nH]c3c(C(F)(F)F)cccc3c2C1` (stereo partly drawn) [compound 54 (TFA salt), (R)-3-{(S)-2-[2-(2-Fluoro-phenyl)-acetylamino]-3-methyl-pentanoylamino}-8-trifluoromethyl-2,3,4,9-tetrahydro-1H-carbazole-3-carboxylic acid [(S)-2-methyl-1-(2-morpholin-4-yl-ethylthiocarbamoyl)-butyl]-amide], the “Normalized Affinity” value in series [1] amounted to 247%. The “mean plasma testosterone concentration over time (FIG. 2)” value with plasma testosterone is on record as “testosterone suppression”.

Take `CCC(C)[C@H](NC(=O)Cc1ccccc1F)C(=O)N[C@]1(C(=O)N[C@H](C(=S)NCC2CCOCC2)C(C)CC)CCc2[nH]c3c(C(F)(F)F)cccc3c2C1` (stereo partly drawn) [Compound 52, (R)-3-{(S)-2-[2-(2-Fluoro-phenyl)-acetylamino]-3-methyl-pentanoylamino}-8-trifluoromethyl-2,3,4,9-tetrahydro-1H-carbazole-3-carboxylic acid {(S)-2-methyl-1-[(tetrahydro-pyran-4-ylmethyl)-thiocarbamoyl]-butyl}-amide]: the “Normalized Affinity” value in series [1] came out at 218%. In series [2], the Normalized microsomal stability was 178%. In series [3] (setting [4]), the exposure AUC(0-t) – broadly, the area under the concentration-time curve up to a stated or last time point – was 306 ng·h/mL; the maximum concentration (Cmax) (as a rule, the highest concentration seen after dosing) worked out at 38.2 ng/mL; the time to peak (Tmax) (commonly the time at which the peak concentration occurs) stood at 4 h. For the same compound, the “higher AUC compared to the pertinent prior art substance (indicative for bioavailability)” value in series [3] (versus WO 2006/005484-substance 76, rats, oral 5 mg/kg) is recorded as “more than 300%”.
